Patent US20020160441A1, “Protein elongation factor 2 as a target for antifungal and antiparasitic agents” (Merck & Co., Inc., priority 1998, published 2002)

Assays:
[1] = target: T1, Saccharomyces cerevisiae EF2 in crude S30 extracts (Saccharomyces cerevisiae, UniProt P32324); assay: Competitive binding assay, Saccharomyces S30 extract; settings: for displacement of ^3H-Compound I binding (in words): unlabelled competitor
T1 construct: A Saccharomyces cerevisiae strain containing wild-type EF2 is inoculated into medium; endogenous in cells; host or cells: Saccharomyces cerevisiae strain with wild-type EF2, S30 extract
T1 sequence (P32324 whole entry): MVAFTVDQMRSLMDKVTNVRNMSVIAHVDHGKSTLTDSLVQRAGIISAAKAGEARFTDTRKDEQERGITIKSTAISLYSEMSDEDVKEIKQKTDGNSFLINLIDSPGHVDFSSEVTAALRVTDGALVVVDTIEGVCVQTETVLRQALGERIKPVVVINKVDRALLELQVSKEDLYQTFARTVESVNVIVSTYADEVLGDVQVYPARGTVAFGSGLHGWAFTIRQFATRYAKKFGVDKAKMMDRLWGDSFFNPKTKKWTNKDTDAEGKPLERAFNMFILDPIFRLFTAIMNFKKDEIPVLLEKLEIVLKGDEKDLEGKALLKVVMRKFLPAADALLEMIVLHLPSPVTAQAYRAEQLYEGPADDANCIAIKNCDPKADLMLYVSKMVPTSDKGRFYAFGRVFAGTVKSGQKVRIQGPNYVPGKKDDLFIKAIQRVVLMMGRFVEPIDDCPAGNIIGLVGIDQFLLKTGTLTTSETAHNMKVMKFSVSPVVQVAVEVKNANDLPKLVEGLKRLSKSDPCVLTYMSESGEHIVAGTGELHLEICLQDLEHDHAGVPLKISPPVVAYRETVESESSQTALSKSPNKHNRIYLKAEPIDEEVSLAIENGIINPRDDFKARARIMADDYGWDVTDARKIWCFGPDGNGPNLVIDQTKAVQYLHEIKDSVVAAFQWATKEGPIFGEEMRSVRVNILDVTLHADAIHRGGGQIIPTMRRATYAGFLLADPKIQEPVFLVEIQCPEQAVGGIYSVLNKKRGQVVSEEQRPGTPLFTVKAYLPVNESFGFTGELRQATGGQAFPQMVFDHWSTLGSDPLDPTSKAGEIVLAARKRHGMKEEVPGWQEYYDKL
Experimental: (§1) A competitive assay can be performed involving the displacement of a radiolabeled compound with specificity for pathogen EF2 such as ^3H-Compound I binding to Saccharomyces cerevisiae EF2 in crude S30 extracts. As proof of the specificity of inhibitor found with the S30 binding assay, binding competition can also be performed with purified EF2 in the presence of washed ribosomes
In a microfuge tube 100 μl assay mixture contains: 10 μg yeast S-30, 25 μM GTP-γ-s (0.5 μl of 5 mM stock), dilutions of agent to be examined for ability to compete for binding and Buffer B to bring volume to 98 μl. Vortex and incubate at room temperature 5 min. Add 2 μl ^3H-Compound I (1:20 dilution in water). Vortex and incubate for 20-30 min.
To a Sephadex G-75 column was pre-soaked in Buffer A (20 gm/400 ml) several hours. Mini columns were packed with G-75 precisely to the mark line (˜1.6 ml ) and allowed to settle by washing with 2 ml Buffer A.
The 100μl incubated mixtures are loaded onto G-75 columns (no collection) As soon as the sample has entered the gel bed (approximately 20 sec), 0.7 ml Buffer A is added and eluate is collected in mini vials 3 ml Scintiverse is added and vials counted.
Saccharomyces S30 extract: A Saccharomyces cerevisiae strain containing wild-type EF2 is inoculated into medium containing in g/l: 10 g Bacto Yeast Extract, 20 g Bacto Peptone, 20 g dextrose and 60 mg adenine and incubated with shaking at 30° C. until mid to late logarithmic phase (A600˜2). The cells are harvested and washed twice with water. Pellets may be stored at −70° C. indefinitely prior to disruption. For breakage, cells are resuspended in 2 vol of buffer containing 50 mM Tris-Cl pH 7.4, 10% (wt/vol) glycerol, 2 mM MgCl2, 2 mM dithiothreitol, 1 mM phenylmethylsulfonyl fluoride and broken by prolonged agitation with acid-washed 0.5 mm glass beads. The supernatant is centrifuged at […] for 15 min to sediment cell debris.

[2] = system: mammalian cell S30 extracts; assay: Binding assay with mammalian cell S30 extracts
Excerpt: as §1
(§2) The binding is displaceable by unlabelled L-793,422, sordarin and analogs. No binding is seen with mammalian cell or wheat germ S30 extracts.

wheat germ S30 extracts = assay: Binding assay with wheat germ S30 extracts
Excerpt: as §1, §2

[3] = target: T2, purified Saccharomyces EF2 (Saccharomyces cerevisiae, UniProt P32324); assay: Binding assay with purified components, Saccharomyces EF2; settings: for binding of labelled compound (in words): yeast EF2
T2 construct: The ribosomes and EF2 are both prepared by published methods; endogenous in cells; host or cells: Saccharomyces cerevisiae; EF2 purified by the method of Skogerson, Methods in Enzymology LX
T2 sequence (P32324 whole entry): as above
Experimental: (§3) This assay involves the same procedure as disclosed above substituting 0.4 A260 units salt-washed S. cerevisiae ribosomes and 1 pmol purified EF2 for the 10 μg S30 in the above assay. The ribosomes and EF2 are both prepared by published methods (L. Skogerson, Methods in Enzymology, Vol LX,p676-685).
(§4) As with the S30 binding assay, this assay may be used to either identify the component binding drug, or to examine competition by unknown agents.

rat EF2 = target: T3, rat EF2 (Rattus norvegicus, UniProt P05197); assay: Binding assay with purified components, rat EF2; settings: yeast EF2 replaced by rat (liver) EF2
T3 construct: from tissue; host or cells: rat liver
Experimental: as §3, §4

wheat germ EF2 = assay: Binding assay with purified components, wheat germ EF2; settings: yeast EF2 replaced by wheat germ EF2
Experimental: as §3, §4

[4] = system: S. cerevisiae sordarin sensitive strain (sS1); assay: Growth inhibition assay I, sordarin sensitive strain; format: cell-based; settings: Saccharomyces cerevisiae; 0.5 μg applied; agar plate, 30° C., 16-24 hours; read-out: clear zone of inhibition
Excerpt: (§5) An assay has been developed to identify antifungal compounds with sordarin like activities using S. cerevisiae as as a surrogate organism. It consists of a two plate differential zone assay using sordarin sensitive (sS1) and resistant strains (sR1) that contain an erg6 deletion, which increases membrane permeability and facilitates the uptake of various substances. In this screen, active compounds show a clear zone on the sensitive strain plate and no zone for the resistant strain plate.
(§6) Approximately 1×10^6 cells per ml are added to growth medium containing 2% agar. Medium and cells are mixed, poured into plates, and allowed to solidify. Test compounds or fermentation extracts are applied with the intent of identifying samples which inhibit the growth of these yeast. The cultures are incubated at 30° C. for 16-24 hours. A similar assay can also be run in a high-throughput microtiter format by inoculating cells into liquid growth medium containing test compounds or fermentation extracts. Active compounds can be identified by assaying for growth inhibition, which can be determined by measuring the optical density of the individual cultures.

[5] = system: S. cerevisiae sordarin resistant strain (sR1); assay: Growth inhibition assay I, sordarin resistant strain; format: cell-based, Saccharomyces cerevisiae; settings: 0.5 μg applied; agar plate, 30° C., 16-24 hours
Excerpt: as §5, §6

CC(C)COCC12CC3C(C)CCC3[C@@]3(C=O)C[C@@H]1C=C(C(C)C)[C@@]23C(=O)O (stereo partly drawn) [Compound I]
displacement of ^3H-Compound I binding (in words) ([1]; Saccharomyces S30 extracts): displaceable

CC(C)COCC12CC3C(C)CCC3[C@@]3(C=O)C[C@@H]1C=C(C(C)C)[C@@]23C(=O)O (stereo partly drawn) [^3H-Compound I]
amount of labelled compound bound ([1]; 10 μg S30 extract from wild-type Saccharomyces): approximately 0.5 pmol
binding of labelled compound (in words) ([1]; Saccharomyces S30 extracts): Specific binding
binding of labelled compound (in words) [2]: No binding
binding of labelled compound (in words) (wheat germ S30 extracts): No binding
amount of labelled compound bound ([3]; 0.65 pmol purified Saccharomyces EF2 plus 4 pmol purified Saccharomyces ribosomes): approximately 0.6 pmol
binding of labelled compound (in words) ([3]; yeast ribosomes replaced by rat (liver) ribosomes, listed as 3H-L793,422): no effect on binding
binding of labelled compound (in words) ([3]; yeast ribosomes replaced by rat (liver) ribosomes, listed as labelled compound): does not reduce binding
binding of labelled compound (in words) ([3]; yeast ribosomes replaced by wheat germ ribosomes, listed as 3H-L793,422): no effect on binding
binding of labelled compound (in words) ([3]; yeast ribosomes replaced by wheat germ ribosomes, listed as labelled compound): does not reduce binding
binding of labelled compound (in words) (rat EF2; listed as 3H-L793,422): abolishes binding
binding of labelled compound (in words) (rat EF2; listed as labelled compound): abolishes binding to background levels
binding of labelled compound (in words) (wheat germ EF2; listed as 3H-L793,422): abolishes binding
binding of labelled compound (in words) (wheat germ EF2; listed as labelled compound): abolishes binding to background levels

CO[C@H]1[C@@H](O)[C@H](O)[C@H](OC[C@@]23C[C@@H]4[C@H](C)CC[C@H]4[C@@]4(C=O)CC2C=C(C(C)C)[C@@]34C(=O)O)O[C@@H]1C [sordarin, reference compound]
IC50 ([1]; 10 μg S30 extract from wild-type Saccharomyces, read-out: IC50 for displacement of ^3H-Compound I binding (converted)): 6.09 nM
displacement of ^3H-Compound I binding (in words) ([1]; Saccharomyces S30 extracts): displaceable
zone of inhibition at 0.5 µg/disc [4]: 20 mm
zone of inhibition (in words) [5]: no zone
